Ends that are not written are not given here.
How the values were obtained:
J774 cells [1] = assay: Fluorescence microscopy: internalization of the cargo protein E7 to the cell; format: cell-based; conditions: 1.66 μM protein, J774, 37° C., 30 min, 1 hour and 2 hours, FIG. 4
Experimental: Cells J774 grown on sterile glass cover slips of 22 mm overnight at 37° C. and 5% of CO2 with RPMI 1640, 10% inactivated calf fetal serum and 2 mM de glutamine. Then, different glass cover slips incubated with 1.66 μM fusion protein LALF-E7, 1.66 μM of protein E7 and PBS (as negative control) a 37° C. per 30 min, 1 hour and 2 hours. CasKi cells (human cells expressing HPV 16) grown as positive control in the same experimental conditions.
After incubation the cells were washed briefly with PBS and fix cells by 4% paraformaldehide per 20 min at room temperature. Wash in three changes of PBS. The permeabilization of the cells was with 0.5% Tritón X-100 for 15 min a room temperature. Wash in three changes of PBS. Then, the cells were incubating for 1 hour in 1% blocking SFB in PBS at room temperature. Wash in three changes of PBS. Cells were incubated with goat IgG anti E7/HPV 16 polyclonal antibody (Santa Cruz) diluted in PBS 1:50. Wash extensively with PBS. Incubate with anti-goat-fluorescein IgG polyclonal antibody (Santa Cruz) diluted in PBS 1:50 for 45 minutes in a dark chamber. Wash extensively with PBS. Mount cover slip with aqueous mounting medium. Examine using a fluorescence microscope with appropriate filters.

J774 cells [2] = assay: Western blot: internalization of the cargo protein E7 to the cell; format: cell-based; conditions: 25 μM protein, J774, 4 hours at 37° C., FIG. 5
Experimental: The cells J774 grown overnight at 37° C. and 5% of CO2 with RPMI 1640, 10% inactivated calf fetal serum and 2 mM de glutamine. After that, the cell were aliquoted in tubes with 5×10^6 cells each and incubated with 25 μM of fusion protein LALF-E7, 25 μM of protein E7 and PBS during 4 hours at 37° C. The sedimentation of the cells was made by a centrifugation to 1000 rpm by 10 minutes. Wash pellet in three changes of PBS. Cells were ruptured in 100 μL of RIPA buffer (Promega) mixed in vortex per 10 second and 2 min in ice. The sedimentation of the broken cells was made by a centrifugation to 12000 rpm by 15 minutes. Protein concentration was determined to the cell extract and rum 10 μg of total protein in 15% polyacrilamide gel. Subsequently the gel was transferred to a nitrocellulose membrane. The membrane was incubated for 2 hours at room temperature with an IgG goat polyclonal antibody anti-E7 HPV 16 (Santa Cruz) diluted in PBS (1:100). Wash in three changes of PBS. Subsequently, the membrane was incubated for 45 minutes at room temperature and in a dark room with an anti-goat IgG peroxidase conjugate (Sigma) diluted in PBS (1:5000). Wash in three changes of PBS. Finally the ECL system from Amersham Pharmacia Biotech was used.

[3] = test system: cells with different histological origins (J774, CasKi, HeLa, TC-1, Hep2); assay: Internalization of CPP LALF or their analogues to cells with different histological origins (fluorescence microscopy); format: cell-based; conditions: 25 or 50 μM biotinylated peptide, 37° C., streptavidin-fluorescein, FIG. 1
Experimental: (§1) Different cellular lines were used in this realization (Table 1). Cells grown on sterile glass cover slips of 22 mm overnight at 37° C. and 5% of CO2 with RPMI 1640, 10% inactivated calf fetal serum and 2 mM de glutamine. Then, 25 or 50 μM de CPP LALF or their biotinylated analogues L-2 y L-20 added and incubated at 37° C. and 4° C. in different times (10 min, 20 min, 30 min, 1 h y 2 h). Wash briefly with PBS and fix cells by 4% paraformaldehide per 20 min at room temperature. Wash in three changes of PBS. The permeabilization of the cells was with 0.5% Tritón X-100 for 15 min a room temperature. Wash in three changes of PBS. The cells were incubating for 1 hour in 1% blocking SFB in PBS at room temperature. Wash in three changes of PBS. Incubate with 1:50000 in PBS streptavidin-fluorescein for 45 minutes in a dark chamber. Wash extensively with PBS. Mount cover slip with aqueous mounting medium. Examine using a fluorescence microscope with appropriate filters.
(§2) As a negative control were used not related biotinylated and cells without peptide.

murine splenocytes = assay: Internalization of the analogues L-2 and L-20 to murine splenocytes (confocal microscopy); format: cell-based, mice C57BL/6; conditions: 0.8 mg biotinylated peptide (278-280 μM), 37° C., 10 min to 18 h, FIG. 2
Experimental: For the splenocytes isolation, the mice C57BL/6 were sacrificed by break-up of the cervical and the splenocytes were removed aseptically. The cellular suspensions of the animals by each group met in pool and they were homogenized smoothly. The splenocytes were washed and the erythrocytes were lysed with a solution of NH4C10.83%. After washing, the splenocytes are divided en different tubes with 20×10^6 of cells in 10 mL of fresh medium RPMI 1640 supplemented with 7% de fetal bovine serum. Each preparation was incubated with 0.8 mg of the biotinylated peptides L-2 (278 μM) y L-20 (280 μM) in different times: 10 min, 30 min, 1 h and 18 h. The incubations were at 37° C. and 5% de CO2. The cells on sterile glass cover slips were fixed, permeabilized and treated with propidium Iodide for to stain the nucleus and with streptavidine-fluorescein for detection of peptides inside the cells.

J774 cells [4] = assay: Fluorescence microscopy: internalization of the cargo protein GFP to the cell; format: cell-based; conditions: FIG. 6
Description: The protein produced in E. coli from the recombinant fusion LALF-GFP (GFP-English, green fluorescence protein) was used to verify that the CPP LALF or its analogues could internalize the cargo protein. The GFP (GenBank Accession #U55762) was obtained using the polymerase chain reaction from plasmid pEGFP-N1 of Clontech using oligonucleotides with SEQ ID N0. 11 and 12. Both oligonucleotides have restricted sites used for cloning (HindIII-sense and BamHI-antisense).
For the construction of recombinant fragment, synthetic LALF and GFP gene obtained by PCR were inserted with the T4 ligase in the vector pM238, similar as in the example III. The recombinant clone is identified with the SEQ ID N0. 13 and 14.
With the recombinant and purified LALF-GFP protein was performed an similar experiment to the example V, but in this case the cells J774 incubated with LALF-GFP, LALF biotinilade, GFP and PBS.

J774 cells [5] = assay: Internalization of CPP LALF in J774 cells at 4° C. (fluorescence microscopy); format: cell-based; conditions: J774, 4° C., 10 min incubation, FIG. 1
Experimental: as §1, §2

With “E7: recombinant protein E7 of HPV 16, unfused comparator [reference compound]” the “internalization of E7 (fluorescent cells, anti-E7 antibody)” value (J774 cells [1]) was “Negative results” and the “detection of protein in cell extract by anti-E7 antibody (Western blot)” value (J774 cells [2]) was “not detected any recognition”.
“L-12: analogous peptide of LALF 32-51 with alanine substitution in the position 12 (SEQ ID N0. 4) (HYRIKPTFRRLAWKYKGKFW; Artificial Sequence Description Analogue L-12)” was tested, and the internalization into cells [3] was “similar” and the internalization into splenocytes (murine splenocytes) was “similar”.
“L-20: analogous peptide of LALF 32-51 with alanine substitution in the position 20 (SEQ ID N0. 5) (HYRIKPTFRRLKWKYKGKFA; Artificial Sequence Description Analogue L-20)” was tested, and the internalization into splenocytes (murine splenocytes) was “internalized in a short times of incubation (30 min)”.
For “LALF-biotinilado: biotinylated CPP LALF peptide used as comparator in the GFP experiment (HYRIKPTFRRLKWKYKGKFW; also: biotinylated, site not given here; UniProt P07086 32-51, looked up, fragment)”, the “internalization of GFP (fluorescent cells)” value (J774 cells [4]) was “fluorescent cells”.
In the case of “LALF: peptide corresponding to the region 32-51 of LALF protein (SEQ ID N0. 1) (HYRIKPTFRRLKWKYKGKFW; Artificial Sequence Description Synthetic Gen CPP LALF)”, the internalization into cells [3] is reported as “internalized in different cell types and short incubation times (30 min)”, the internalization into cells (J774 cells [5]) is reported as “internalized in the cells J774 with only 10 min of the incubation at 4 °C” and the internalization into splenocytes (murine splenocytes) is reported as “similar”.

— patent publication US8673313B2, “Cell penetrating peptides and its use fused to biomolecules with therapeutic action” (priority 2007, dated 2014)
